# Entries after “also recorded” stand apart in the source; their conditions may differ.
# Test system: choroidal neovascularization (CNV)
# Assay: Rodent model of surgically (laser) induced CNV, intravitreal injection, fluorescein angiography lesion areas
# Assay type: in vivo, Brown Norway rats
# Set-up: Mean of lesion areas, Left Eye (OS) / Mean of lesion areas, Both Eyes (OU): unit not given here
# Details: for fluorescein leakage in fluorescein angiography images: sample animal
# Text: In one example, twenty-four (24) naïve, male Brown Norway rats, 225-250 g at study start, are acclimated for a minimum of 5 days prior to dosing. Animals are weighed prior to dosing and at euthanasia. All animals undergo pre-screening ophthalmic examinations prior to study start as follows:
# CNV is then induced via laser treatment (e.g. laser photocoagulation (20-100-μm spot size; 0.05-0.1 seconds duration; 50 to 200 mW) at six positions of the posterior pole in each eye) by a board certified veterinary ophthalmologist. Only animals in which the laser produces a bubble indicating rupture of Bruch's membrane, are included in the study. The compound is administered in suitable form of a Test Article. Test and Control Article treatment begin 3 days post laser induction. In another experiment, the Test and Control Article treatments begin prior to or immediately post induction, in yet other experiments, Test and Control Article treatments begin 10 days post induction. Study duration is 3 weeks, with the option to extend on a weekly basis based on extent of healing. Animals have clinical ophthalmic examinations and fluorescein angiography approximately 3 days post-induction (prior to Test Article treatment) to confirm disease state. The route of administration for Test Article(s) and vehicle control is intravitreal (IVT) injection on Day 1, which is approximately 3-4 days post-induction, once the CNV disease state has been confirmed.
# In the first experiment, a low dose (5 μL at 3.7 mg/mL) and a high dose (5 μL at 7.8 mg/mL) of the compound are evaluated against vehicle control. The three treatment groups are (N=8 per group, 24 animals total):
# A. Test Article—Low Dose (19 μg/eye)
# B. Test Article—High Dose (39 μg/eye)
# Daily gross ocular observations and general health observations are performed. Additional exams, performed weekly up to 3 weeks post Test Article dosing, include clinical ophthalmic exams, slit-lamp biomicroscopy, indirect ophthalmoscopy, and fluorescein staining if needed. Ocular findings are scored using the McDonald-Shadduck scoring system.
# Fluorescein angiography (e.g. using Heidelberg SPECTRALIS® instrumentation) is performed to determine the degree of neovascularization (NV) in the retina and/or choroid. After fluorescein angiography, tissues are then harvested for possible future analysis (e.g. eyes are fixed in Davidson's solution and then transferred to 70% ethanol). Alternatively, the area of retinal and/or choroidal NV can be determined in various other ways. In one example, prior to sacrifice, the rodents are perfused with PBS containing 50 mg/mL of fluorescein-labeled dextran (2×10^6 Da average molecular mass). Alternatively, fluorescein-labeled Lycopersicon esculentum (tomato) lectin can be used. The choroids are then flat mounted and examined by fluorescence microscopy. A standard image analysis software is then used to measure the total area of retinal/choroidal NV with the investigator masked with respect to treatment group.
# Results from an initial experiment treating animals with a control vehicle, low dose (19 μg/eye), or high dose (39 μg/eye) of Compound 7 are shown in FIGS. 1-6.
# Animals were dosed on Day 3. […] The surrounding regions around the laser burn continued to show a higher fluorescence from Days 3-14. Day 9 intensities were attenuated due to the presence of fluorescein in both the anterior and posterior chambers of the eye.
# FIGS. 4-6 and Tables 1-3 below show Mean (±SEM) of lesion areas in the right, left and both eyes, respectively.
# [1] = High Dose (39 μg/eye, 5 μL at 7.8 mg/mL) IVT, Day 3 (prior to dosing)
# [2] = High Dose (39 μg/eye, 5 μL at 7.8 mg/mL) IVT, Day 9
# [3] = High Dose (39 μg/eye, 5 μL at 7.8 mg/mL) IVT, Day 14
# [4] = High dose (39 μg/eye) IVT, Day 3 (baseline)
# [5] = High dose (39 μg/eye) IVT, Day 9
# [6] = High dose (39 μg/eye) IVT, Day 14
# [7] = Low Dose (19 μg/eye, 5 μL at 3.7 mg/mL) IVT, Day 3 (prior to dosing)
# [8] = Low Dose (19 μg/eye, 5 μL at 3.7 mg/mL) IVT, Day 9
# [9] = Low Dose (19 μg/eye, 5 μL at 3.7 mg/mL) IVT, Day 14
# [10] = Low dose (19 μg/eye) IVT, Day 3 (baseline)
# [11] = Low dose (19 μg/eye) IVT, Day 9
# [12] = Low dose (19 μg/eye) IVT, Day 14
smiles,measurement,setting,value
"O=C(O)CNC(=O)c1ncc(-c2cccc(F)c2)cc1O [Compound 7, {[5-(3-fluorophenyl)-3-hydroxypyridine-2-carbonyl]amino} acetic acid]","Mean of lesion areas, Both Eyes (OU)",[1],4.21
same,"Mean of lesion areas, Left Eye (OS)",[1],3.86
same,"Mean of lesion areas, Right Eye (OD)",[1],4.56
same,"Mean of lesion areas, Both Eyes (OU)",[2],1.71
same,"Mean of lesion areas, Left Eye (OS)",[2],1.68
same,"Mean of lesion areas, Right Eye (OD)",[2],1.75
same,"Mean of lesion areas, Both Eyes (OU)",[3],0.71
same,"Mean of lesion areas, Left Eye (OS)",[3],0.84
same,"Mean of lesion areas, Right Eye (OD)",[3],0.58
same,"percentage area reduction of lesion areas, Both Eyes",[4],0.00%
same,"percentage area reduction of lesion areas, Left Eye",[4],0.00%
same,"percentage area reduction of lesion areas, Right Eye",[4],0.00%
same,"percentage area reduction of lesion areas, Both Eyes",[5],−53.83%
same,"percentage area reduction of lesion areas, Left Eye",[5],−46.66%
same,"percentage area reduction of lesion areas, Right Eye",[5],−61.00%
same,"percentage area reduction of lesion areas, Both Eyes",[6],−83.63%
same,"percentage area reduction of lesion areas, Left Eye",[6],−79.77%
same,"percentage area reduction of lesion areas, Right Eye",[6],−87.49%
same,"Mean of lesion areas, Both Eyes (OU)",[7],3.74
same,"Mean of lesion areas, Left Eye (OS)",[7],3.48
same,"Mean of lesion areas, Right Eye (OD)",[7],4.01
same,"Mean of lesion areas, Both Eyes (OU)",[8],1.84
same,"Mean of lesion areas, Left Eye (OS)",[8],1.81
same,"Mean of lesion areas, Right Eye (OD)",[8],1.88
same,"Mean of lesion areas, Both Eyes (OU)",[9],0.96
same,"Mean of lesion areas, Left Eye (OS)",[9],1.02
same,"Mean of lesion areas, Right Eye (OD)",[9],0.90
same,"percentage area reduction of lesion areas, Both Eyes",[10],0.00%
same,"percentage area reduction of lesion areas, Left Eye",[10],0.00%
same,"percentage area reduction of lesion areas, Right Eye",[10],0.00%
same,"percentage area reduction of lesion areas, Both Eyes",[11],−48.43%
same,"percentage area reduction of lesion areas, Left Eye",[11],−44.39%
same,"percentage area reduction of lesion areas, Right Eye",[11],−52.47%
same,"percentage area reduction of lesion areas, Both Eyes",[12],−73.63%
same,"percentage area reduction of lesion areas, Left Eye",[12],−68.00%
same,"percentage area reduction of lesion areas, Right Eye",[12],−79.25%
same,vascular leakage in the ocular vasculature compared with vehicle control (lesion areas over time),"low dose and high dose, FIGS. 4-6 (OD, OS, OU)",reduction of vascular leakage
same,overall fluorescence and leakage compared to animals treated with vehicle control,low or high doses (19 or 39 μg/eye) IVT,reduced overall fluorescence and leakage
same,fluorescein leakage in fluorescein angiography images,"high dose (5 μL at 7.8 mg/mL), Day 9",Lower fluorescence leakage
same,fluorescein leakage in fluorescein angiography images,"high dose (5 μL at 7.8 mg/mL), Day 14",no fluorescein leakage was observed; also recorded: no fluorescence leakage
same,fluorescein leakage in fluorescein angiography images,"low dose (5 μL at 3.7 mg/mL), Day 9",Lower fluorescence leakage
same,fluorescein leakage in fluorescein angiography images,"low dose (5 μL at 3.7 mg/mL), Day 14",almost subsided completely; also recorded: minimal fluorescence leakage

# From patent US20160339005A1, “COMPOSITIONS AND METHODS FOR TREATING OCULAR DISEASES” (AKEBIA THERAPEUTICS, INC., priority 2014, published 2016)
